The NIST ThermoML archive (doi:10.1007/s10765-019-2537-x)
± gives the expanded uncertainty stated by the source.

Settings: Liquid, transient hot wire

`Cc1ccccc1` [toluene] gave a thermal conductivity (317.39 K, 5130 kPa) of 0.1266 ± 0.04 W/m/K, a thermal conductivity (317.42 K, 1050 kPa) of 0.1251 ± 0.04 W/m/K and a thermal conductivity (317.42 K, 10550 kPa) of 0.1277 ± 0.04 W/m/K. The thermal conductivity (317.46 K, 15330 kPa) was 0.1292 ± 0.04 W/m/K, the thermal conductivity (317.52 K, 20330 kPa) was 0.133 ± 0.04 W/m/K and the thermal conductivity (336.3 K, 20300 kPa) was 0.1267 ± 0.04 W/m/K. The thermal conductivity (336.32 K, 10150 kPa) was 0.1229 ± 0.04 W/m/K, the thermal conductivity (336.34 K, 15140 kPa) was 0.1245 ± 0.04 W/m/K and the thermal conductivity (336.39 K, 5020 kPa) was 0.1205 ± 0.04 W/m/K. The thermal conductivity (336.42 K, 1030 kPa) was 0.1194 ± 0.04 W/m/K, the thermal conductivity (356.27 K, 15170 kPa) was 0.1205 ± 0.04 W/m/K and the thermal conductivity (356.27 K, 20040 kPa) was 0.1218 ± 0.04 W/m/K. For the same molecule, the thermal conductivity (356.36 K, 10440 kPa) was 0.1184 ± 0.04 W/m/K, the thermal conductivity (356.41 K, 1160 kPa) was 0.1131 ± 0.04 W/m/K and the thermal conductivity (356.43 K, 5170 kPa) was 0.1166 ± 0.04 W/m/K. It also gave a thermal conductivity (376.88 K, 20030 kPa) of 0.1185 ± 0.04 W/m/K, a thermal conductivity (376.95 K, 5200 kPa) of 0.1108 ± 0.04 W/m/K and a thermal conductivity (376.95 K, 10160 kPa) of 0.1124 ± 0.04 W/m/K. It also gave a thermal conductivity (376.95 K, 15270 kPa) of 0.1147 ± 0.04 W/m/K, a thermal conductivity (377.07 K, 1080 kPa) of 0.1096 ± 0.04 W/m/K and a thermal conductivity (395.96 K, 15140 kPa) of 0.1121 ± 0.04 W/m/K. The thermal conductivity (396.23 K, 10180 kPa) was 0.1091 ± 0.04 W/m/K, the thermal conductivity (396.26 K, 20010 kPa) was 0.1141 ± 0.04 W/m/K and the thermal conductivity (396.28 K, 5150 kPa) was 0.1072 ± 0.04 W/m/K. The thermal conductivity (396.32 K, 1030 kPa) was 0.1059 ± 0.04 W/m/K, the thermal conductivity (416.29 K, 20250 kPa) was 0.1104 ± 0.04 W/m/K and the thermal conductivity (416.33 K, 15150 kPa) was 0.1066 ± 0.04 W/m/K. It also gave a thermal conductivity (416.68 K, 5290 kPa) of 0.1033 ± 0.04 W/m/K, a thermal conductivity (416.72 K, 10280 kPa) of 0.1054 ± 0.04 W/m/K and a thermal conductivity (416.75 K, 1040 kPa) of 0.1013 ± 0.04 W/m/K. The thermal conductivity (436.23 K, 20100 kPa) was 0.1051 ± 0.04 W/m/K, the thermal conductivity (436.34 K, 15130 kPa) was 0.1036 ± 0.04 W/m/K and the thermal conductivity (436.37 K, 1020 kPa) was 0.0972 ± 0.04 W/m/K. The thermal conductivity (436.48 K, 10230 kPa) was 0.1026 ± 0.04 W/m/K, the thermal conductivity (436.52 K, 5170 kPa) was 0.0992 ± 0.04 W/m/K and the thermal conductivity (456.02 K, 20030 kPa) was 0.1029 ± 0.04 W/m/K. For the same molecule, the thermal conductivity (456.04 K, 5400 kPa) was 0.0956 ± 0.04 W/m/K, the thermal conductivity (456.22 K, 15290 kPa) was 0.1003 ± 0.04 W/m/K and the thermal conductivity (456.24 K, 10330 kPa) was 0.099 ± 0.04 W/m/K. The thermal conductivity (456.26 K, 1140 kPa) was 0.0928 ± 0.04 W/m/K, the thermal conductivity (476.35 K, 10170 kPa) was 0.0941 ± 0.04 W/m/K and the thermal conductivity (476.38 K, 20260 kPa) was 0.0994 ± 0.04 W/m/K. For the same molecule, the thermal conductivity (476.61 K, 1110 kPa) was 0.0901 ± 0.04 W/m/K, the thermal conductivity (476.73 K, 5010 kPa) was 0.0914 ± 0.04 W/m/K and the thermal conductivity (476.75 K, 15330 kPa) was 0.0965 ± 0.04 W/m/K. The thermal conductivity (496.03 K, 20300 kPa) was 0.0962 ± 0.04 W/m/K, the thermal conductivity (496.15 K, 2850 kPa) was 0.0875 ± 0.04 W/m/K and the thermal conductivity (496.27 K, 15290 kPa) was 0.0945 ± 0.04 W/m/K. For the same molecule, the thermal conductivity (496.31 K, 10420 kPa) was 0.0928 ± 0.04 W/m/K, the thermal conductivity (496.49 K, 5210 kPa) was 0.087 ± 0.04 W/m/K and the thermal conductivity (516.06 K, 20190 kPa) was 0.094 ± 0.04 W/m/K. It also gave a thermal conductivity (516.2 K, 15360 kPa) of 0.0916 ± 0.04 W/m/K, a thermal conductivity (516.21 K, 10220 kPa) of 0.0906 ± 0.04 W/m/K and a thermal conductivity (516.4 K, 5090 kPa) of 0.0862 ± 0.04 W/m/K. It also gave a thermal conductivity (536.3 K, 10150 kPa) of 0.0873 ± 0.04 W/m/K, a thermal conductivity (536.39 K, 15400 kPa) of 0.0897 ± 0.04 W/m/K and a thermal conductivity (536.56 K, 20330 kPa) of 0.0921 ± 0.04 W/m/K. It also gave a thermal conductivity (556.53 K, 15430 kPa) of 0.0908 ± 0.04 W/m/K, a thermal conductivity (556.59 K, 20100 kPa) of 0.0927 ± 0.04 W/m/K and a thermal conductivity (556.68 K, 10050 kPa) of 0.0869 ± 0.04 W/m/K. It also gave a thermal conductivity (576.72 K, 20150 kPa) of 0.0885 ± 0.04 W/m/K.
